From EP2768830B1, “APOPTOSIS-INDUCING AGENTS FOR THE TREATMENT OF CANCER AND IMMUNE AND AUTOIMMUNE DISEASES” (AbbVie Inc., priority 2011, dated 2013)

What was measured:
[1] = test system: mouse FL5.12 cells transfected with Bcl-XL; test: FL5.12 cellular assay (cell viability, CellTiter-Glo); format: cell-based; settings: Mus musculus; FL5.12 cells transfected with Bcl-XL, IL-3-depleted, 3% FBS assay media, 24 hours, CellTiter-Glo; read-out: FL5.12 Bcl-xL, - IL3, EC 50;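 note: each EC50 determination derived from duplicate measurements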
[2] = target: GST-Bcl-xL (Homo sapiens, UniProt Q07817); settings: read-out: TR-FRET binding Bcl-xL Ki
GST-Bcl-xL, sequence (Q07817 whole entry): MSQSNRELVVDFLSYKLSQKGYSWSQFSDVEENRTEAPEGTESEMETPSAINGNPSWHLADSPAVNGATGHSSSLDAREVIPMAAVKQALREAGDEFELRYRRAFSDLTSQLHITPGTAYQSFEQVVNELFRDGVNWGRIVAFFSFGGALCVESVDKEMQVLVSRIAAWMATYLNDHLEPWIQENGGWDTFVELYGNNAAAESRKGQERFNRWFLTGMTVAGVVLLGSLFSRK

Compound	EC50 [1] [nM]	Ki [2] [nM]
O=C(Nc1nc2ccccc2s1)c1cccc2c1CN(c1ccc(-c3cnn(Cc4ccccc4O)c3)c(C(=O)O)n1)CC2 [Example 36, 6-[8-(1,3-benzothiazol-2-ylcarbamoyl)-3,4-dihydroisoquinolin-2(1H)-yl]-3-[1-(2-hydroxybenzyl)-1H-pyrazol-4-yl]pyridine-2-carboxylic acid]	> 1000	8
Cc1ccc(Oc2ccccc2)cc1-c1ccc(N2CCc3cccc(C(=O)Nc4nc5ccccc5s4)c3C2)nc1C(=O)O [Example 109, 6-[8-(1,3-benzothiazol-2-ylcarbamoyl)-3,4-dihydroisoquinolin-2(1H)-yl]-3-(2-methyl-5-phenoxyphenyl)pyridine-2-carboxylic acid]	> 1000	49
O=C(Nc1nc2ccccc2s1)c1cccc2c1CN(c1ccc(-c3ccnc(Oc4ccccc4)c3)c(C(=O)O)n1)CC2 [Example 140, 6-[8-(1,3-benzothiazol-2-ylcarbamoyl)-3,4-dihydroisoquinolin-2(1H)-yl]-2'-phenoxy-3,4'-bipyridine-2-carboxylic acid]	> 1000	2.3
Cc1c(-c2ccc(N3CCc4cccc(C(=O)Nc5nc6ccccc6s5)c4C3)nc2C(=O)O)cnn1CC1(N2CCOCC2)CCCCC1 [Example 160, 6-[8-(1,3-benzothiazol-2-ylcarbamoyl)-3,4-dihydroisoquinolin-2(1H)-yl]-3-(5-methyl-1-{[1-(morpholin-4-yl)cyclohexyl]methyl}-1H-pyrazol-4-yl)pyridine-2-carboxylic acid]	14	< 0.1
Cc1c(-c2ccc(N3CCc4cccc(C(=O)Nc5nc6ccccc6s5)c4C3)nc2C(=O)O)cnn1CC1(OCC2COCCO2)CCCCCC1 (stereo not drawn) [Example 173, 6-[8-(1,3-benzothiazol-2-ylcarbamoyl)-3,4-dihydroisoquinolin-2(1H)-yl]-3-(1-{[1-(1,4-dioxan-2-ylmethoxy)cycloheptyl]methyl}-5-methyl-1H-pyrazol-4-yl)pyridine-2-carboxylic acid]	0.1	< 0.1
O=Cc1cccc(Cn2cc(-c3ccc(N4CCc5cccc(C(=O)Nc6nc7ccccc7s6)c5C4)nc3C(=O)O)cn2)c1 [Example 64, 6-[8-(1,3-benzothiazol-2-ylcarbamoyl)-3,4-dihydroisoquinolin-2(1H)-yl]-3-[1-(3-formylbenzyl)-1H-pyrazol-4-yl]pyridine-2-carboxylic acid]	> 1000	61
CN(C)CCCNc1ccc(Cn2cc(-c3ccc(N4CCc5cccc(C(=O)Nc6nc7ccccc7s6)c5C4)nc3C(=O)O)cn2)cc1[N+](=O)[O-] [Example 44, 6-[8-(1,3-benzothiazol-2-ylcarbamoyl)-3,4-dihydroisoquinolin-2(1H)-yl]-3-[1-(4-{[3-(dimethylamino)propyl]amino}-3-nitrobenzyl)-1H-pyrazol-4-yl]pyridine-2-carboxylic acid]	> 1000	17
Cc1c(-c2ccc(N3CCc4cccc(C(=O)Nc5nc6ccccc6s5)c4C3)nc2C(=O)O)cnn1Cc1ccccc1F [Example 41, 6-[8-(1,3-benzothiazol-2-ylcarbamoyl)-3,4-dihydroisoquinolin-2(1H)-yl]-3-[1-(2-fluorobenzyl)-5-methyl-1H-pyrazol-4-yl]pyridine-2-carboxylic acid]	11	1
O=C(Nc1nc2ccccc2s1)c1cccc2c1CN(c1ccc(-c3cnn(CC4CCCCC4)c3C3CC3)c(C(=O)O)n1)CC2 [Example 70, 6-[8-(1,3-benzothiazol-2-ylcarbamoyl)-3,4-dihydroisoquinolin-2(1H)-yl]-3-[1-(cyclohexylmethyl)-5-cyclopropyl-1H-pyrazol-4-yl]pyridine-2-carboxylic acid]	58	5
